Reference: patent US7429618B2, “Potassium channel modulators” (Neurosearch A/S, priority 2002, dated 2008)

melting point	SMILES
157.4 to 160.6 °C	O=S(=O)(c1ccccc1)C(c1ccc(F)cc1)(c1ccc(F)cc1)c1ccc(F)cc1 [Compound 7-7, Phenyl tris(4-fluorophenyl)methyl sulfone]
112 to 113 °C	O=C(O)CSC(c1ccc(F)cc1)(c1ccc(F)cc1)c1ccccc1F [Compound 5-20, [(2-Fluoro-phenyl)-bis-(4-fluoro-phenyl)-methylsulfanyl]-acetic acid]
147.7 to 151.8 °C	[O-][n+]1ccccc1SC(c1ccc(F)cc1)(c1ccc(F)cc1)c1ccc(F)cc1 [Compound 5-13, 2-[Tris-(4-fluorophenyl)-methylsulfanyl]-pyridine-N-oxide]
240 °C (dec.)	Cc1ccc(C(c2ccc(F)cc2)(c2ccc(F)cc2)P(=O)(O)O)cc1 [Compound 10-15, [Bis-(4-fluoro-phenyl)-p-tolyl-methyl]-phosphonic acid]
122 to 123 °C	CCN(CC)C(=O)CSC(c1ccc(F)cc1)(c1ccc(F)cc1)c1ccccc1F [Compound 5-14, 2-[Bis-(4-fluoro-phenyl)-(2-fluoro-phenyl)-methylsulfanyl]-N,N-diethyl-acetamide]
135.5 to 140.5 °C	Cn1ccnc1SC(c1ccc(F)cc1)(c1ccc(F)cc1)c1ccc(F)cc1 [Compound 5-11, 1-Methyl-2-[tris-(4-fluorophenyl)-methylsulfanyl]-1H-imidazole]
119 to 120 °C	NC(=O)CSC(c1ccc(F)cc1)(c1ccc(F)cc1)c1ccccc1F [Compound 5-17, 2-[Bis-(4-fluoro-phenyl)-(2-fluoro-phenyl)-methylsulfanyl]-acetamide]
111 to 112 °C	N#CCSC(c1ccc(F)cc1)(c1ccc(F)cc1)c1ccccc1F [Compound 5-19, [Bis-(4-fluoro-phenyl)-(2-fluoro-phenyl)-methylsulfanyl]-acetonitrile]
228 to 230 °C	O=P(O)(O)C(c1ccc(F)cc1)(c1ccc(F)cc1)c1ccccc1F [Compound 10-14, [Bis-(4-fluoro-phenyl)-(2-fluoro-phenyl)-methyl]-phosphonic acid]
140.6 to 145.3 °C	CS(=O)(=O)C(c1ccc(F)cc1)(c1ccc(F)cc1)c1ccc(F)cc1 [Compound 7-1, Methyl tris(4-fluorophenyl)methyl sulfone]
147 to 149 °C	CS(=O)(=O)C(c1ccc(F)cc1)(c1ccc(F)cc1)c1ccccc1F [Compound 7-14, Methanesulphonyl-2-fluorophenyl-bis-(4-fluoro-phenyl) methane]
120 to 121 °C	CN(C(=O)CSC(c1ccc(F)cc1)(c1ccc(F)cc1)c1ccccc1F)c1ccccc1 [Compound 5-15, 2-[Bis-(4-fluoro-phenyl)-(2-fluoro-phenyl)-methylsulfanyl]-N-methyl-N-phenyl-acetamide]
128 to 129 °C	O=C(CSC(c1ccc(F)cc1)(c1ccc(F)cc1)c1ccccc1F)N1CCCCC1 [Compound 5-16, 2-[Bis-(4-fluoro-phenyl)-(2-fluoro-phenyl)-methylsulfanyl]-1-piperidin-1-yl-ethanone]
133 to 134 °C	CC(SC(c1ccc(F)cc1)(c1ccc(F)cc1)c1ccccc1F)C(N)=O (centres unmarked) [Compound 5-18, 2-[Bis-(4-fluoro-phenyl)-(2-fluoro-phenyl)-methylsulfanyl]-propionamide]

More lines, now with the values behind:

SMILES	melting point
O=[N+]([O-])c1ccc(OC(c2ccc(F)cc2)(c2ccc(F)cc2)c2nccs2)cc1C(F)(F)F [Compound 1, 2-[Bis-(4-fluoro-phenyl)-(4-nitro-3-trifluoromethyl-phenoxy)-methyl]-thiazole]	88.6 to 89.5 °C
COC(=O)C(C#N)(c1ccc(F)cc1)c1ccccc1F (centres unmarked) [Compound 22, Cyano-(4-fluoro-phenyl)-(2-fluoro-phenyl)-acetic acid methyl ester]	104 to 105 °C
COP(=O)(OC)C(c1ccc(F)cc1)(c1ccc(F)cc1)c1ccc(F)cc1	131.6 °C
N#CC(c1ccc(F)cc1)(c1ccccc1F)C(c1ccccc1)c1ccccc1 (centres unmarked) [Compound 13, 2-(2-Fluoro-phenyl)-2-(4-fluoro-phenyl)-3,3-diphenyl-propionitrile]	210 to 215.3 °C
N#CC(c1ccc(F)cc1)(c1ccc(F)cc1)C(c1ccccc1)c1ccccc1 [Compound 12, 2,2-Bis-(4-fluoro-phenyl)-3,3-diphenyl-propionitrile]	208 to 212.5 °C
COP(=O)(OC)C(c1ccc(F)cc1)(c1ccc(F)cc1)c1ccc(Cl)cc1	136 to 137 °C
C=CCC(C#N)(c1ccc(F)cc1)c1ccccc1F (centres unmarked) [Compound 4, 2-(2-Fluoro-phenyl)-2-(4-fluoro-phenyl)-pent-4-enenitrile]	215 to 219 °C
CC(C)C(C#N)(c1ccc(F)cc1)c1ccc(F)cc1 [Compound 6, 2,2-Bis-(4-fluoro-phenyl)-3-methyl-butyronitrile]	142.3 to 147 °C
COP(=O)(OC)C(c1ccc(F)cc1)(c1ccc(F)cc1)c1ccccc1F	136.6 °C
Fc1ccc(C(OP2OCCO2)(c2ccc(F)cc2)c2ccc(F)cc2)cc1	195 to 196 °C
CC(=O)C(C#N)(c1ccc(F)cc1)c1ccc(F)cc1 [Compound 18, 2,2-Bis-(4-fluoro-phenyl)-3-oxo-butyronitrile]	< 50 °C
N#CCC(C#N)(c1ccc(F)cc1)c1ccc(F)cc1 [Compound 24, 2,2-Bis-(4-fluoro-phenyl)-succinonitrile]	93 to 94 °C
Fc1ccc(C(OP2OCCO2)(c2ccc(F)cc2)c2ccccc2F)cc1	163 to 164 °C
CCOC(=O)C(C(=O)OCC)C(C#N)(c1ccc(F)cc1)c1ccc(F)cc1 [Compound 27, 2-[Cyano-bis-(4-fluoro-phenyl)-methyl]-malonic acid diethyl ester]	117 to 119 °C
COP(=O)(OC)C(c1ccc(F)cc1)(c1ccccc1F)c1ccccc1Cl (centres unmarked)	131.5 to 132.5 °C
